Results reported in US12371454B2, “Cyclic peptide compound having Kras inhibitory action” (priority 2019, dated 2025).
Starred links: 1 amine or outer side, 2 acyl side, 3 side chain; linkers in the order of their positions; H or OH if unused. Positions of bridges follow the written chain, without caps; N, C: chain ends. Non-standard residues stand in square brackets, D forms with d. Residues, ends and D or L forms follow the SMILES beside them. *: point of attachment. NMeAbu(3,3-F2-piperidino) = CN[C@@H](CCN1CCCC(F)(F)C1)C(=O)O; hPhe(3-Cl-4-CF3) = N[C@@H](CCc1ccc(C(F)(F)F)c(Cl)c1)C(=O)O; hPhe(3-F,4-CF3) = N[C@@H](CCc1ccc(C(F)(F)F)c(F)c1)C(=O)O; hPhe(4-CF3) = N[C@@H](CCc1ccc(C(F)(F)F)cc1)C(=O)O; Phe(3-CF3) = N[C@@H](Cc1cccc(C(F)(F)F)c1)C(=O)O; NMePhe(4-Cl) = CN[C@@H](Cc1ccc(Cl)cc1)C(=O)O; NMePhe(4-Me) = CN[C@@H](Cc1ccc(C)cc1)C(=O)O; X33 = Cc1ccc(CC[C@H](N[*:1])C(=O)[*:2])cc1; NMedβ3hAla = C[C@H](CC(=O)[*:2])N(C)[*:1]; NMeGly(cPent) = CN[C@H](C(=O)O)C1CCCC1; Phe(3-I) = N[C@@H](Cc1cccc(I)c1)C(=O)O; NMeCha = CN[C@@H](CC1CCCCC1)C(=O)O; NMeChg = CN[C@H](C(=O)O)C1CCCCC1; NMeF = CN[C@@H](Cc1ccccc1)C(=O)O; NMeI = CC[C@H](C)[C@H](NC)C(=O)O; NMeD = CN[C@@H](CC(=O)O)C(=O)O; NMeL = CN[C@@H](CC(C)C)C(=O)O; NMeNva = CCC[C@H](NC)C(=O)O; NMeV = CN[C@H](C(=O)O)C(C)C; d(β3hA) = C[C@@H](N)CC(=O)O; NMeAbu = CC[C@H](NC)C(=O)O; Iva = CC[C@](C)(N)C(=O)O; NMeA = CN[C@@H](C)C(=O)O; NMeAib = CNC(C)(C)C(=O)O; Piperidide = C1CCN(*)CC1; Pyrrolidide = C1CCN(*)C1; dNMeA = CN[C@H](C)C(=O)O; Ac5c = NC1(C(=O)O)CCCC1; Aze = O=C(O)[C@@H]1CCN1; Thp = NC1(C(=O)O)CCOCC1; NPrGly = CCCNCC(=O)O; Sar = CNCC(=O)O

Target: T1, Kras and SOS1 (biotin-tagged human Kras loaded with GDP, His-tagged human SOS1) (Homo sapiens, UniProt P01116, G12D)
T1 construct: made in house; host or cells: E. coli (stated for Kras only)
Assay: Protein-protein interaction inhibition between Kras and SOS1 (KrasGl2D-SOS PPI) using AlphaScreen
Format: binding
Conditions: AlphaScreen; biotin-tagged human Kras loaded with GDP, His-tagged human SOS1; read-out: KRAS G12D-SOS PPI IC50
In short: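 Energy transfer from nickel-chelate donor beads bound to His-SOS1 to streptavidin acceptor beads bound to biotin-Kras, expressed in E. coli and loaded with GDP after purification, was monitored. Donors were excited at 680 nm; singlet oxygen reaching acceptors gave emission read at 520-620 nm.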

T1 sequence (P01116 1-188 isoform P01116-2 G12D): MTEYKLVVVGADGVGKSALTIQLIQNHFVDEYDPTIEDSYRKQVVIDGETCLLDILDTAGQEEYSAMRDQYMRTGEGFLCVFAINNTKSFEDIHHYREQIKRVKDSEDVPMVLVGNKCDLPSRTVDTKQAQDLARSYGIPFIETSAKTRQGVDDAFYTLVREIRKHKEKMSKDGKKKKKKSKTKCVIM

Compound | IC50 [nM]
CC[C@H](C)[C@@H]1NC(=O)[C@H](CC(C)C)N(C)C(=O)C[C@@H](C(=O)N2CCCCC2)N(C)C(=O)[C@H](CC(C)C)NC(=O)C(C)(C)N(C)C(=O)[C@H](Cc2cccc(C(F)(F)F)c2)NC(=O)[C@H](Cc2cccc(I)c2)NC(=O)CN(C)C(=O)[C@H](Cc2ccc(C)cc2)N(C)C(=O)CN(C)C(=O)CN(C)C1=O [Compound 376] ([NMeL]I[Sar][Sar][NMePhe(4-Me)][Sar][Phe(3-I)][Phe(3-CF3)][NMeAib]L[NMeD]-Piperidide; lactam N-11) | 44
CC[C@H](C)[C@@H]1NC(=O)[C@H](CC(C)C)N(C)C(=O)C[C@@H](C(=O)N(C)C)N(C)C(=O)[C@H]([C@@H](C)CC)N(C)C(=O)C2(CCCC2)NC(=O)[C@H](C)N(C)C(=O)[C@H](CCc2ccc(C(F)(F)F)c(Cl)c2)NC(=O)CN(C)C(=O)[C@H](Cc2ccc(C)cc2)N(C)C(=O)[C@@H]2CCN2C(=O)[C@H](C)N(C)C1=O [Compound 378, (3S,6S,9S,13S,16S,22S,25S,31S,34S)-25-[2-[3-chloro-4-(trifluoromethyl)phenyl]ethyl]-9-isobutyl-N,N,3,4,10,14,17,22,23,29,32-undecamethyl-6,16-bis[(1S)-1-methylpropyl]-2,5,8,11,15,18,21,24,27,30,33-undecaoxo-31-(p-tolylmethyl)spiro[1,4,7,10,14,17,20,23,26,29,32-undecazabicyclo[32.2.0]hexatriacontane-19,1′-cyclopentane]-13-carboxamide] ([NMeL]I[NMeA][Aze][NMePhe(4-Me)][Sar][hPhe(3-Cl-4-CF3)][NMeA][Ac5c][NMeI][NMeD]-NMe2; lactam N-11) | 0.68
CC[C@H](C)[C@@H]1NC(=O)[C@H](CC(C)C)N(C)C(=O)C[C@@H](C(=O)N(C)C)N(C)C(=O)[C@H]([C@@H](C)CC)N(C)C(=O)[C@H](C(C)C)NC(=O)[C@H](CCN2CCCC(F)(F)C2)N(C)C(=O)[C@H](CCc2ccc(C(F)(F)F)c(Cl)c2)NC(=O)CN(C)C(=O)[C@H](Cc2ccc(C)cc2)N(C)C(=O)[C@@H]2CCN2C(=O)[C@H](C)N(C)C1=O [Compound 379] ([NMeL]I[NMeA][Aze][NMePhe(4-Me)][Sar][hPhe(3-Cl-4-CF3)][NMeAbu(3,3-F2-piperidino)]V[NMeI][NMeD]-NMe2; lactam N-11) | 13
CC[C@H](C)[C@@H]1NC(=O)[C@H](C)N(C)C(=O)C[C@@H](C(=O)N2CCCCC2)N(C)C(=O)[C@H](C(C)C)N(C)C(=O)C2(CCCC2)NC(=O)[C@@H]2CCCN2C(=O)[C@H](CCc2ccc(C(F)(F)F)c(Cl)c2)NC(=O)[C@@H](C)N(C)C(=O)[C@H](CC2CCCCC2)N(C)C(=O)CN(C)C(=O)CN(C)C1=O [Compound 380] ([NMeA]I[Sar][Sar][NMeCha][dNMeA][hPhe(3-Cl-4-CF3)]P[Ac5c][NMeV][NMeD]-Piperidide; lactam N-11) | 5.6
CC[C@H](C)[C@@H]1NC(=O)[C@H](CC(C)C)N(C)C(=O)C[C@@H](C(=O)N(C)C)N(C)C(=O)[C@H]([C@@H](C)CC)N(C)C(=O)[C@H](C)NC(=O)[C@@H](C)NC(=O)[C@H](CCc2ccc(C(F)(F)F)c(Cl)c2)NC(=O)CN(C)C(=O)[C@H](Cc2ccc(C)cc2)N(C)C(=O)[C@@H]2CCN2C(=O)[C@H](C)N(C)C1=O [Compound 382] ([NMeL]I[NMeA][Aze][NMePhe(4-Me)][Sar][hPhe(3-Cl-4-CF3)][dA]A[NMeI][NMeD]-NMe2; lactam N-11) | 35
CC[C@H](C)[C@@H]1NC(=O)[C@H](C)N(C)C(=O)C[C@@H](C)NC(=O)[C@H](CC(C)C)N(C)C(=O)[C@H](CC2CCCCC2)N(C)C(=O)[C@@H]2CCCN2C(=O)[C@H](CCc2ccc(C(F)(F)F)cc2)NC(=O)CN(C)C(=O)[C@H](Cc2ccc(Cl)cc2)N(C)C(=O)CN(C)C(=O)CN(C)C1=O [Compound 383] (cyclo(I[Sar][Sar][NMePhe(4-Cl)][Sar][hPhe(4-CF3)]P[NMeCha][NMeL][d(β3hA)][NMeA])) | 260
CC[C@H](C)[C@@H]1NC(=O)[C@H](CC(C)C)N(C)C(=O)C[C@@H](C(=O)N(C)C)N(C)C(=O)[C@H](C2CCCC2)N(C)C(=O)[C@H](C(C)C)NC(=O)[C@H](CCN2CCCC(F)(F)C2)N(C)C(=O)[C@H](CCc2ccc(C(F)(F)F)c(Cl)c2)NC(=O)CN(C)C(=O)[C@H](CC2CCCCC2)N(C)C(=O)[C@@H]2CCN2C(=O)[C@H](C)N(C)C1=O [Compound 389] ([NMeL]I[NMeA][Aze][NMeCha][Sar][hPhe(3-Cl-4-CF3)][NMeAbu(3,3-F2-piperidino)]V[NMeGly(cPent)][NMeD]-NMe2; lactam N-11) | 45
CCC[C@H]1C(=O)N[C@@H]([C@@H](C)CC)C(=O)N(C)[C@@H](C)C(=O)N2CC[C@H]2C(=O)N(C)[C@@H](CC2CCCCC2)C(=O)N(C)CC(=O)N[C@@H](CCc2ccc(C(F)(F)F)c(Cl)c2)C(=O)N2CCC[C@H]2C(=O)NC2(CCCC2)C(=O)N(C)[C@@H](C2CCCC2)C(=O)N(C)[C@H](C(=O)N2CCCCC2)CC(=O)N1C [Compound 391, (5S,8S,11S,15S,18S,23aS,29S,35S,37aS)-8-((S)-sec-butyl)-29-(3-chloro-4-(trifluoromethyl)phenethyl)-35-(cyclohexylmethyl)-18-cyclopentyl-5,6,12,16,19,33,36-heptamethyl-15-(piperidine-1-carbonyl)-11-propyldocosahydro-2H,4H-spiro[azeto[2,1-u]pyrrolo[2,1-i][1,4,7,10,13,16,19,22,25,28,31]undecaazacyclotetratriacontine-21,1′-cyclopentan]-4,7,10,13,17,20,23,28,31,34,37(14H,22H)-undecaone] ([NMeNva]I[NMeA][Aze][NMeCha][Sar][hPhe(3-Cl-4-CF3)]P[Ac5c][NMeGly(cPent)][NMeD]-Piperidide; lactam N-11) | 0.4
CCC[C@H]1C(=O)NC2(CCCC2)C(=O)N(C)[C@@H](C2CCCCC2)C(=O)N(C)[C@H](C(=O)N2CCCCC2)CC(=O)N(C)[C@@H](CC(C)C)C(=O)N[C@@H]([C@@H](C)CC)C(=O)N(C)CC(=O)N2CCC[C@H]2C(=O)N(C)[C@@H](CC2CCCCC2)C(=O)N(C)CC(=O)N[C@@H](CCc2ccc(C(F)(F)F)c(Cl)c2)C(=O)N1C [Compound 392] ([NMeL]I[Sar]P[NMeCha][Sar][hPhe(3-Cl-4-CF3)][NMeNva][Ac5c][NMeChg][NMeD]-Piperidide; lactam N-11) | 12
CC[C@H](C)[C@@H]1NC(=O)[C@H](CC(C)C)N(C)C(=O)C[C@@H](C(=O)N2CCCCC2)N(C)C(=O)[C@H](C(C)C)N(C)C(=O)[C@](C)(CC)NC(=O)[C@@H]2CCCN2C(=O)[C@H](CCc2ccc(C(F)(F)F)c(Cl)c2)NC(=O)CN(C)C(=O)[C@H](CC2CCCCC2)N(C)C(=O)[C@@H]2CCN2C(=O)[C@H](C)N(C)C1=O [Compound 394] ([NMeL]I[NMeA][Aze][NMeCha][Sar][hPhe(3-Cl-4-CF3)]P[Iva][NMeV][NMeD]-Piperidide; lactam N-11) | 13
CC[C@H](C)[C@@H]1NC(=O)[C@H](C)N(C)C(=O)C[C@@H](C)NC(=O)[C@H](C2CCCC2)N(C)C(=O)C2(CCCC2)NC(=O)[C@@H]2CCCN2C(=O)[C@H](CCc2ccc(C(F)(F)F)c(Cl)c2)NC(=O)[C@@H](C)N(C)C(=O)[C@H](C)N(C)C(=O)[C@@H]2CCN2C(=O)[C@H](C)N(C)C1=O [Compound 396] (cyclo([Ac5c][NMeGly(cPent)][d(β3hA)][NMeA]I[NMeA][Aze][NMeA][dNMeA][hPhe(3-Cl-4-CF3)]P)) | 220
CC[C@H](C)[C@@H]1NC(=O)[C@H](C)N(C)C(=O)C[C@@H](C(=O)N2CCCC2)NC(=O)[C@H](CC(C)C)N(C)C(=O)[C@H](Cc2ccccc2)N(C)C(=O)[C@H](CC(C)C)NC(=O)[C@H](CCc2ccc(C)cc2)NC(=O)CN(C)C(=O)[C@H](Cc2ccc(Cl)cc2)N(C)C(=O)CN(C)C(=O)CN(C)C1=O [Compound 398] ([NMeA]I[Sar][Sar][NMePhe(4-Cl)][Sar][X33]L[NMeF][NMeL]D-Pyrrolidide; lactam N-11) | 120
CC[C@H](C)[C@@H]1NC(=O)[C@H](CC(C)C)N(C)C(=O)C[C@@H](C)NC(=O)[C@H](CC(C)C)N(C)C(=O)C2(CCCC2)NC(=O)[C@@H]2CCCN2C(=O)[C@H](CCc2ccc(C(F)(F)F)c(F)c2)NC(=O)CN(C)C(=O)[C@H](CC2CCCCC2)N(C)C(=O)CN(C)C(=O)CN(C)C1=O [Compound 402] (cyclo([Ac5c][NMeL][d(β3hA)][NMeL]I[Sar][Sar][NMeCha][Sar][hPhe(3-F,4-CF3)]P)) | 26
CCCN1CC(=O)N(C)[C@@H](CC2CCCCC2)C(=O)N(C)CC(=O)N[C@@H](CCc2ccc(C(F)(F)F)c(Cl)c2)C(=O)N2CCC[C@H]2C(=O)NC2(CCCC2)C(=O)N(C)[C@@H](C(C)C)C(=O)N[C@H](C)CC(=O)N(C)[C@@H](CC(C)C)C(=O)N[C@@H]([C@@H](C)CC)C(=O)N(C)CC1=O [Compound 405] (cyclo([Ac5c][NMeV][d(β3hA)][NMeL]I[Sar][NPrGly][NMeCha][Sar][hPhe(3-Cl-4-CF3)]P)) | 270
CC[C@H](C)[C@@H]1NC(=O)[C@H](CC(C)C)N(C)C(=O)C[C@@H](C)N(C)C(=O)[C@H](CC(C)C)N(C)C(=O)C2(CCOCC2)NC(=O)[C@@H]2CCCN2C(=O)[C@H](CCc2ccc(C(F)(F)F)c(F)c2)NC(=O)CN(C)C(=O)[C@H](CC2CCCCC2)N(C)C(=O)CN(C)C(=O)CN(C)C1=O [Compound 407] (cyclo(I[Sar][Sar][NMeCha][Sar][hPhe(3-F,4-CF3)]P[Thp][NMeL][NMedβ3hAla][NMeL])) | 39
CC[C@H](C)[C@@H]1NC(=O)[C@H](C)N(C)C(=O)C[C@@H](C)NC(=O)[C@H](C2CCCC2)N(C)C(=O)C2(CCCC2)NC(=O)[C@@H]2CCCN2C(=O)[C@H](CCc2ccc(C(F)(F)F)c(Cl)c2)NC(=O)[C@@H](C)N(C)C(=O)[C@H](CC)N(C)C(=O)CN(C)C(=O)CN(C)C1=O [Compound 413] (cyclo([Ac5c][NMeGly(cPent)][d(β3hA)][NMeA]I[Sar][Sar][NMeAbu][dNMeA][hPhe(3-Cl-4-CF3)]P)) | 50
